Test results from US6001852A (priority 1996, dated 1999).

Experiments:
zinc precipitated Aβ = assay: Washing of zinc-aggregated synthetic Aβ on nylon membrane (anti Aβ mAb 6E10, ECL-film); assay type: biochemical; settings: 2 μM in TBS, 200 μl wash; 10 ng Aβ aggregated with 25 μM ZnCl; 100% for TBS alone
Experimental: Samples of 10 ng synthetic Aβ were placed in microtitre wells and caused to aggregate by the addition of 25 μM ZnCl. The aggregates were then transferred to a 0.2 μm nylon membrane by filtration. […] The membrane was fixed, probed with the anti Aβ monoclonal antibody 6E10 and developed for exposure to ECL-film. The transmittance of the ECL-film was measured and the relative signal strength calculated based on 100% for TBS alone.

Aβ = assay: Solubilization of Aβ from Alzheimer's disease brain homogenates (Western blot, mAb W02); assay type: biochemical, human; settings: frontal lobe neocortex homogenized in clioquinol/PBS at 100%, 10% and 1% (100%=800 nM)
Experimental: Brain specimens were obtained for which a histopathological diagnosis of Alzheimer's disease was confirmed.
The homogenates were centrifuged at 150,000 xg for thirty minutes and the supernatants collected and held on ice (fraction "S"). The pellets were subjected to an identical homogenization and centrifugation regime and the resulting supernatants again collected (fraction "P")
1 ml of each supernatant was treated with 200 μl of ice cold 10% TCA to precipitate total protein including Aβ. The resulting pellet was washed once with 100% ethanol and resuspended in 100 μl of TBS (tris 20 mM, NaCl 150 mM, pH 7.4).
7.5 μl of sample (S or P) was boiled for 5 min. with an equal volume of tris-tricine sample buffer containing 4% SDS and loaded onto a Novex pre-cast 10-20% tris-tricine gel followed by Western transfer onto nitrocellulose. […] The sensitivity of the detection system is 5-10 pg.
To validate the TCA precipitation for Aβ 1 μg of synthetic Aβ 1-40 was added to 1 ml of PBS containing 10% BSA and the solution was treated as above.

[1] = Dissolution of clioquinol in n-decane and extraction into PBS pH 7.4; assay type: physicochemical
Experimental: The resolubilization of amyloid aggregates by clioquinol was studied. […] The undissolved aterial was allowed to settle. […] 100 ml of the (light yellow) supernatant was agitated together with 100 ml of PBS pH 7.4 and the phases allowed to separate. The PBS (lower phase) was collected and filtered to remove the residue which formed at the phase interface upon extraction with the organic solvent.

zinc-aggregated Aβ = assay: Resolubilization of zinc-aggregated Aβ in TBS pH 7.4; assay type: biochemical; settings: clioquinol added after 30 μM zinc (43% in solution with zinc alone, 95% before zinc)
Experimental: The ability of clioquinol to resolubilize zinc-aggregated Aβ was assessed. A […] solution of Aβ in TBS at a pH of 7.4 was prepared. 95% of the Aβ was maintained in a soluble state.

[2] = 1H NMR study of the interaction of vitamin B12 with clioquinol glucuronide; assay type: binding; settings: 2.6 mM vitamin B12 and 10 mM clioquinol glucuronide, buffered water pH 6.5, 20° C.
Experimental: Three different solutions were prepared and their ^1 H NMR spectra were recorded in a DRX 400 MHz spectrophotometer at 20° C. Solution a) contained free vitamin B12 (hydroxycobalamin) in a concentration of 2.6 mM.
In FIG. 1 the spectra of the three solutions are presented for the aromatic region (5.5-9.8 ppm). The differences are quite small but obvious in the expansion shown of FIG. 2 and FIG. 3, respectively.

O=C(O)CN(CCN(CC(=O)O)CC(=O)O)CC(=O)O [EDTA]
Relative signal strength (Aβ remaining on membrane) (zinc precipitated Aβ): 66%

Oc1c(I)cc(Cl)c2cccnc12 [clioquinol, 5-chloro-7-iodo-8 hydroxyquinoline]
Solubilization of Aβ (Aβ): effective in promoting the solubilization of Aβ | Share of clioquinol dissolved in n-decane ([1]; 5.3 g suspended in 200 ml n-decane): 2% | Concentration of clioquinol in the PBS ([1]; PBS pH 7.4 extract of decane supernatant, 1:1, assuming 2% dissolved and partitioning coefficient 1/1750): 800 nM | Soluble Aβ (zinc-aggregated Aβ): 70%

COC(=O)[C@H]1OC(Oc2c(I)cc(Cl)c3cccnc23)[C@H](OC(C)=O)[C@@H](OC(C)=O)[C@@H]1OC(C)=O (stereo partly drawn) [methyl (5-chloro-7-iodo-quinolyl-2',3',4'-tri-o-acetyl-glucopyranosid)uronate]
Interaction with vitamin B12 (shifted 1H NMR resonances) [2]: interaction between clioquinol glucuronide and vitamin B12
